How the values were obtained:
H929 cells = assay: Cell viability assay (Cell TiterGlo), H929 cells; assay type: cell-based, human; details: Homo sapiens, NCI-H929, 24 hours
Protocol: Cell viability assays were performed using A431 or H929 cells. A431 cells were seeded in 96-well plates at 10,000 cells/well, and after overnight incubation, treated with compounds at 2-times the final concentration to result in a dose response of 3-fold dilutions from 10 μM to 0.0005 μM (50 μL/well, 0.1% final DMSO concentration). H929 cells were seeded in 96-well plates at 10,000 cells/well and treated immediately with compounds as described above. After 24 hours at 37° C., cell viability was measured using Cell TiterGlo reagent (Promega) with a luminescence reader. Alternately, cell viability assays were performed in 384-well format. A431 cells were seeded in 384-well plates at 2500 cells/well and, after overnight incubation, treated with compounds in a dose response of 3-fold dilutions from 10 μM to 0.0005 μM ([…], 0.1% final DMSO concentration). For the H929 viability assay, […] of the compounds was dispensed into 384-well plates in a dose response as described above and cells were immediately seeded in 384-well plates at 2500 cells/well. After 24 hours at […], cell viability was measured using Cell TiterGlo reagent (Promega) with a luminescence reader.

CDK9/Cyclin T1 = biological target: T1, CDK9/Cyclin T1 (Homo sapiens, UniProt P50750); assay: CDK9 enzyme activity, LANCE ULight TR-FRET kinase assay; assay type: biochemical; details: 1000 μM ATP, 4 nM CDK9/Cyclin T1, 30 minutes
T1 construct: purchased Carna Biosciences 04-110
Protocol: CDK9 enzyme activities were measured using LANCE ULight TR-FRET kinase assay reagents (PerkinElmer, Waltham, Mass.). Compounds were directly added in 100% DMSO to white low volume assay plates (Perkin Elmer Proxiplate 6008289) using a Labcyte Echo acoustic dispenser. Assay reagents in serine/threonine kinase assay buffer containing 20 mM HEPES, 10 mM MgCl2, 100 mM Na3VO4, and 0.0075% Triton X-100. were added for final reaction mixture concentrations of 1000 μM ATP, 100 nM U-light MBP peptide (Perkin Elmer TRF0109M) and reaction initiated with 4 nM CDK9/Cyclin T1 (Carna Biosciences 04-110). The kinase reaction was carried out for 30 minutes before addition of stopping buffer to a final of 20 mM EDTA and 0.5 nM of LANCE Ultra Europium anti-phospho-MBP antibody (PerkinElmer TRF0201M) in LANCE detection buffer (PerkinElmer CR97-100). The reaction was equilibrated for 1 hour and the signal read in the Perkin Elmer Envision in TR-FRET mode (excitation at 320 nm and emission at 615/665 nm).

T1 sequence (P50750 whole entry): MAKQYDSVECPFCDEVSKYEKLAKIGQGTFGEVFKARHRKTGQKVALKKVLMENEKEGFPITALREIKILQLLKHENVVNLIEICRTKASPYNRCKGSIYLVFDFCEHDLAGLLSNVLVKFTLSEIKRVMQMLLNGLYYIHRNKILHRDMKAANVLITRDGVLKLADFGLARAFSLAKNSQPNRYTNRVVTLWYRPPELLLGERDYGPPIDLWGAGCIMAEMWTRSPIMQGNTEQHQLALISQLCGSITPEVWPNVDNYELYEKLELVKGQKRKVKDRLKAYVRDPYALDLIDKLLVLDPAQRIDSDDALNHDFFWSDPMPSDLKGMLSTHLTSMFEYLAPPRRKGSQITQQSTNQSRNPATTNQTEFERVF
T1 sequence (O60563 whole entry partner): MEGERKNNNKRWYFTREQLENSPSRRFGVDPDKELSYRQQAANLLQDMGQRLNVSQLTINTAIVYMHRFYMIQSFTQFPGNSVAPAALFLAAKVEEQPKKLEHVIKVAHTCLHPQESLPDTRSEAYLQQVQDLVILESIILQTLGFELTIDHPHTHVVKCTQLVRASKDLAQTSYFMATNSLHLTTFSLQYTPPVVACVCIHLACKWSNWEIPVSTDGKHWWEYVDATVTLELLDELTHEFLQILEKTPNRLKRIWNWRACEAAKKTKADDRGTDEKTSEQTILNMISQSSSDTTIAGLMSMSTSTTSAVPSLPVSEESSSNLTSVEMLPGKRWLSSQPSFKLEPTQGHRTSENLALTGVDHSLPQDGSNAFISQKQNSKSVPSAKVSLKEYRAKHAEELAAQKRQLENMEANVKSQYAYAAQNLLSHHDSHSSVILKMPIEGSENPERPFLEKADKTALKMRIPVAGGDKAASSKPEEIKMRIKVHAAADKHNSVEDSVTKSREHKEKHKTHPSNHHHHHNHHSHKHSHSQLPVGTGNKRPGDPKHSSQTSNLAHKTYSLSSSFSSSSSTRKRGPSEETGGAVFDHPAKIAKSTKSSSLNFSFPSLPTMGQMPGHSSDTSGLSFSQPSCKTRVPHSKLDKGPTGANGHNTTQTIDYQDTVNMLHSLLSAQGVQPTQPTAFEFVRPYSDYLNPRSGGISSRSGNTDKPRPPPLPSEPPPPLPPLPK

| SMILES | EC50 (H929 cells) [nM] | IC50 (CDK9/Cyclin T1) [nM] |
| --- | --- | --- |
| CS(=O)(=O)N1CCC(c2cc3c(-c4ccc5ncn(CC6CCOCC6)c5c4)ccnc3[nH]2)CC1 [Example 6, 6-{2-[1-(methylsulfonyl)piperidin-4-yl]-1H-pyrrolo[2,3-b]pyridin-4-yl}-1-(tetrahydro-2H-pyran-4-ylmethyl)-1H-benzimidazole] | 130 | 38 |
| c1cc(-c2ccc3ncn(CC4CCOCC4)c3n2)c2cc(C3CCNCC3)[nH]c2n1 [Example 7, 5-[2-(piperidin-4-yl)-1H-pyrrolo[2,3-b]pyridin-4-yl]-3-(tetrahydro-2H-pyran-4-ylmethyl)-3H-imidazo[4,5-b]pyridine] | 500 | 69 |
| CS(=O)(=O)N1CCC(c2cc3c(-c4ccc5c(C#N)cn(Cc6cccc(F)c6)c5c4)ccnc3[nH]2)CC1 [Example 11, 1-(3-fluorobenzyl)-6-{2-[1-(methylsulfonyl)piperidin-4-yl]-1H-pyrrolo[2,3-b]pyridin-4-yl}-1H-indole-3-carbonitrile] | 178 | 110 |
| CNC(=O)N1CCC(c2cc3c(-c4ccc5ncn(Cc6cncc(F)c6)c5c4)ccnc3[nH]2)CC1 [Example 16, 4-(4-{1-[(5-fluoropyridin-3-yl)methyl]-1H-benzimidazol-6-yl}-1H-pyrrolo[2,3-b]pyridin-2-yl)-N-methylpiperidine-1-carboxamide] | 180 | 94 |
| OCC(O)CN1CCC(c2cc3c(-c4ccc5ncn(Cc6cncc(F)c6)c5c4)ccnc3[nH]2)CC1 (stereo not shown) [Example 17, 3-[4-(4-{1-[(5-fluoropyridin-3-yl)methyl]-1H-benzimidazol-6-yl}-1H-pyrrolo[2,3-b]pyridin-2-yl)piperidin-1-yl]propane-1,2-diol] | 120 | 66 |
| Fc1cc2ncn(CC3CCOCC3)c2cc1-c1ccnc2[nH]c(C3CCNCC3)cc12 [Example 18, 5-fluoro-6-[2-(piperidin-4-yl)-1H-pyrrolo[2,3-b]pyridin-4-yl]-1-(tetrahydro-2H-pyran-4-ylmethyl)-1H-benzimidazole] | 858 | 120 |
| OCC(O)CN1CCC(c2cc3c(-c4cc5c(cc4F)ncn5CC4CCOCC4)ccnc3[nH]2)CC1 (stereo not shown) [Example 19, 3-(4-{4-[5-fluoro-1-(tetrahydro-2H-pyran-4-ylmethyl)-1H-benzimidazol-6-yl}-1H-pyrrolo[2,3-b]pyridin-2-yl]piperidin-1-yl)propane-1,2-diol] | 1110 | 97 |
| CNC(=O)N1CCC(c2cc3c(-c4cc5c(cc4F)ncn5CC4CCOCC4)ccnc3[nH]2)CC1 [Example 20, 4-{4-[5-fluoro-1-(tetrahydro-2H-pyran-4-ylmethyl)-1H-benzimidazol-6-yl]-1H-pyrrolo[2,3-b]pyridin-2-yl}-N-methylpiperidine-1-carboxamide] | 1970 | 160 |
| O=C(CO)N1CCC(c2cc3c(-c4cc5c(cc4F)ncn5CC4CCOCC4)ccnc3[nH]2)CC1 [Example 21, 1-(4-{4-[5-fluoro-1-(tetrahydro-2H-pyran-4-ylmethyl)-1H-benzimidazol-6-yl}-1H-pyrrolo[2,3-b]pyridin-2-yl]piperidin-1-yl)-2-hydroxyethanone] | 1850 | 100 |
| N#Cc1cn(Cc2ccccc2)c2cc(-c3ncnc4[nH]c(C5=CCNCC5)cc34)ccc12 [Example 22, 1-benzyl-6-[6-(1,2,3,6-tetrahydropyridin-4-yl)-7H-pyrrolo[2,3-d]pyrimidin-4-yl]-1H-indole-3-carbonitrile] | 100 | 16 |
| CS(=O)(=O)N1CCC(c2cc3c(-c4cc5c(cc4F)ncn5CC4CCOCC4)ccnc3[nH]2)CC1 [Example 23, 5-fluoro-6-{2-[1-(methylsulfonyl)piperidin-4-yl]-1H-pyrrolo[2,3-b]pyridin-4-yl}-1-(tetrahydro-2H-pyran-4-ylmethyl)-1H-benzimidazole] | 550 | 55 |
| Clc1cc2ncn(CC3CCOCC3)c2cc1-c1ccnc2[nH]c(C3CCNCC3)cc12 [Example 27, 5-chloro-6-[2-(piperidin-4-yl)-1H-pyrrolo[2,3-b]pyridin-4-yl]-1-(tetrahydro-2H-pyran-4-ylmethyl)-1H-benzimidazole] | 7000 | 53 |
| N#Cc1cn(CC2CCOCC2)c2cc(-c3ccnc4[nH]c(C5CCNCC5)cc34)cnc12 [Example 28, 6-[2-(piperidin-4-yl)-1H-pyrrolo[2,3-b]pyridin-4-yl]-1-(tetrahydro-2H-pyran-4-ylmethyl)-1H-pyrrolo[3,2-b]pyridine-3-carbonitrile] | > 10000 | 180 |
| c1cc(-c2cnc3ccn(CC4CCOCC4)c3c2)c2cc(C3CCNCC3)[nH]c2n1 [Example 30, 6-{2-(piperidin-4-yl)-1H-pyrrolo[2,3-b]pyridin-4-yl}-1-(tetrahydro-2H-pyran-4-ylmethyl)-1H-pyrrolo[3,2-b]pyridine] | 6300 | 85 |
| N#Cc1cn(Cc2ccccc2)c2cc(-c3ncnc4[nH]c(C5=CCN(CC(O)CO)CC5)cc34)ccc12 (stereo not shown) [Example 31, 1-benzyl-6-{6-[1-(2,3-dihydroxypropyl)-1,2,3,6-tetrahydropyridin-4-yl]-7H-pyrrolo[2,3-d]pyrimidin-4-yl}-1H-indole-3-carbonitrile] |  | 30 |
| Fc1cccc(CCn2nnc3ccc(-c4ccnc5[nH]c(C6CCNCC6)cc45)cc32)c1 [Example 32, 1-[2-(3-fluorophenyl)ethyl]-6-{2-(piperidin-4-yl)-1H-pyrrolo[2,3-b]pyridin-4-yl}-1H-benzotriazole] | 890 | 51 |
| Fc1cccc(CCn2nnc3ccc(-c4ccnc5[nH]c(C6CCNCC6)c(Cl)c45)cc32)c1 [Example 33, 6-[3-chloro-2-(piperidin-4-yl)-1H-pyrrolo[2,3-b]pyridin-4-yl]-1-[2-(3-fluorophenyl)ethyl]-1H-benzotriazole] | 1100 | 18 |
| CS(=O)(=O)N1CCC(c2cc3c(-c4cnc5ccn(Cc6cccc(F)c6)c5c4)ccnc3[nH]2)CC1 [Example 34, 1-(3-fluorobenzyl)-6-{2-[1-(methylsulfonyl)piperidin-4-yl]-1H-pyrrolo[2,3-b]pyridin-4-yl}-1H-pyrrolo[3,2-b]pyridine] | 130 | 17 |
| N#Cc1cn(Cc2cccc(F)c2)c2nc(-c3ccnc4[nH]c(C5CCNCC5)cc34)ccc12 [Example 35, 1′-(3-fluorobenzyl)-2-(piperidin-4-yl)-1H,1′H-4,6′-bipyrrolo[2,3-b]pyridine-3′-carbonitrile] | 200 | 13 |
| C1=C(c2cc3c(-c4ccc5nnn(CC6CCOCC6)c5c4)ccnc3[nH]2)CCNC1 [Example 36, 1-(tetrahydro-2H-pyran-4-ylmethyl)-6-[2-(1,2,3,6-tetrahydropyridin-4-yl)-1H-pyrrolo[2,3-b]pyridin-4-yl]-1H-benzotriazole] | 450 | 59 |
| Fc1cncc(Cn2ccc3ncc(-c4ccnc5[nH]c(C6CCNCC6)cc45)cc32)c1 [Example 37, 1-[(5-fluoropyridin-3-yl)methyl]-6-[2-(piperidin-4-yl)-1H-pyrrolo[2,3-b]pyridin-4-yl]-1H-pyrrolo[3,2-b]pyridine] | 170 | 26 |
| O=C(CO)N1CC=C(c2cc3c(-c4ccc5nnn(CC6CCOCC6)c5c4)ccnc3[nH]2)CC1 [Example 38, 2-hydroxy-1-[4-{4-[1-(tetrahydro-2H-pyran-4-ylmethyl)-1H-benzotriazol-6-yl}-1H-pyrrolo[2,3-b]pyridin-2-yl]-3,6-dihydropyridin-1(2H)-yl]ethanone] | 440 | 62 |
| CS(=O)(=O)N1CC=C(c2cc3c(-c4ccc5nnn(CC6CCOCC6)c5c4)ccnc3[nH]2)CC1 [Example 39, 6-{2-[1-(methylsulfonyl)-1,2,3,6-tetrahydropyridin-4-yl]-1H-pyrrolo[2,3-b]pyridin-4-yl}-1-(tetrahydro-2H-pyran-4-ylmethyl)-1H-benzotriazole] | 200 | 74 |
| Fc1cccc(Cn2ccc3ncc(-c4ccnc5[nH]c(C6=CCNCC6)cc45)cc32)c1 [Example 40, 1-(3-fluorobenzyl)-6-[2-(1,2,3,6-tetrahydropyridin-4-yl)-1H-pyrrolo[2,3-b]pyridin-4-yl]-1H-pyrrolo[3,2-b]pyridine] | 53 | 17 |
| COC(=N)c1cn(Cc2cccc(F)c2)c2cc(-c3ccnc4[nH]c(C5CCNCC5)cc34)c(F)cc12 [Example 41, methyl 5-fluoro-1-(3-fluorobenzyl)-6-[2-(piperidin-4-yl)-1H-pyrrolo[2,3-b]pyridin-4-yl]-1H-indole-3-carboximidate] | 590 | 91 |

Source: patent US8969375B2, “CDK9 kinase inhibitors” (AbbVie Inc., priority 2013, dated 2015)
